ChEMBL document CHEMBL1152878, “N-Hydroxy-1,2-disubstituted-1H-benzimidazol-5-yl acrylamides as novel histone deacetylase inhibitors: design, synthesis, SAR studies, and in vivo antitumor activity” (Bioorg Med Chem Lett, 2009)
Active and inactive are the calls of the source. The rule behind the calls is not given here.

How the values were obtained:
COLO 205 = assay: Antiproliferative activity against human COLO205 cells after 96 hrs by celltiter assay; type: functional, cell-based; details: COLO 205, 96 h
Histone deacetylase 1 = Histone deacetylase 1 (Homo sapiens, UniProt Q13547)
Description: Inhibition of recombinant HDAC1 by fluorimetric assay

A2780 = assay: Antiproliferative activity against human A2780 cells after 96 hrs by celltiter assay; type: functional, cell-based; details: A2780, 96 h
PC-3 = assay: Antiproliferative activity against human PC3 cells after 96 hrs by celltiter assay; type: functional, cell-based; details: PC-3, 96 h
in vitro [1] = details: human, liver microsomes
HCT-116 [2] = assay: Antiproliferative activity against human HCT116 cells after 96 hrs by celltiter assay; type: functional, cell-based; details: HCT-116, 96 h
in vitro [3] = details: mouse, liver microsomes
Description: (§1) Metabolic stability in mouse liver microsomes assessed as half life

[4] = Toxicity in ip dosed athymic mouse assessed as maximum tolerated dose; type: organism-based; details: in vivo
[5] = mouse, microsomes
Description: as §1

HCT-116 [6] = assay: Antitumor activity against human HCT116 cells xenografted in athymic mouse assessed as tumor growth inhibition at 100 mg/kg, ip qd for 21 days measured on day 11; type: functional; details: HCT-116, ip, route intraperitoneal, read-out: TGI
Mus musculus [7] = assay: Toxicity in athymic mouse xenografted with human HCT116 cells at 100 mg/kg, ip qd for 21 days measured on day 12; type: organism-based, HCT-116; design: dose 100 mg/kg, route intraperitoneal; details: in vivo, 504 h
HCT-116 [8] = assay: Antitumor activity against human HCT116 cells xenografted in athymic mouse assessed as tumor growth inhibition at 50 mg/kg, ip qd for 21 days measured on day 21; type: functional; details: HCT-116, ip, 504 h, route intraperitoneal, read-out: TGI
HCT-116 [9] = assay: Antitumor activity against human HCT116 cells xenografted in athymic mouse assessed as tumor growth inhibition at 60 mg/kg, ip qd for 21 days measured on day 22; type: functional; details: HCT-116, ip, route intraperitoneal, read-out: TGI
HCT-116 [10] = assay: Induction of histone H3 hyperacetylation in human HCT116 cells; type: functional, cell-based
Mus musculus [11] = assay: Induction of histone H3 hyperacetylation in human HCT116 cells xenografted athymic mouse; type: functional, organism-based; details: HCT-116
HCT-116 [12] = assay: Antitumor activity against human HCT116 cells xenografted in athymic mouse assessed as tumor growth inhibition at 75 mg/kg, ip qd for 21 days measured on day 21; type: functional; details: HCT-116, ip, 504 h, route intraperitoneal, read-out: TGI

Chain of Histone deacetylase 1 (Q13547 whole entry): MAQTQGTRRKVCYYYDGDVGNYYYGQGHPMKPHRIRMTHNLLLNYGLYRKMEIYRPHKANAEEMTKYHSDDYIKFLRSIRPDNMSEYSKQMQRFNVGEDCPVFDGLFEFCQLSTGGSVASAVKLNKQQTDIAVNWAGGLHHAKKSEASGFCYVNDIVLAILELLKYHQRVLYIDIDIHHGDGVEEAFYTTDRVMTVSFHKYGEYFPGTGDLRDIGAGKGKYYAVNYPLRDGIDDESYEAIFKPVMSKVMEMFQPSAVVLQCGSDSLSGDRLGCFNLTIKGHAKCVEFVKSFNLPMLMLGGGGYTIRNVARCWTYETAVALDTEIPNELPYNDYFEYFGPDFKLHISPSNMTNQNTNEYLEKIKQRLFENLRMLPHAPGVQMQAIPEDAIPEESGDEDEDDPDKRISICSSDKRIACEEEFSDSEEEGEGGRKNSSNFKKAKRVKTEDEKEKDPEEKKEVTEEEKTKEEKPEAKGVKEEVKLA

| Compound | IC50 (COLO 205) [nM] | IC50 (Histone deacetylase 1) [nM] | further results |
| --- | --- | --- | --- |
| CCN(CC)CCn1c(CCc2ccccc2)nc2cc(/C=C/C(=O)NO)ccc21.Cl.Cl | – | – | IC50 (A2780): 100 nM; IC50 (PC-3): 200 nM; half-life (in vitro [1]): 16 min; IC50 (HCT-116 [2]): 240 nM; half-life (in vitro [3]): 2.8 min |
| COCCCn1c(CCc2ccccc2)nc2cc(/C=C/C(=O)NO)ccc21 | 2200 | – | – |
| O=C(CCCCCCC(=O)Nc1ccccc1)NO [VORINOSTAT] | – | – | MTD [4]: 200 mg/kg |
| Cl.Cl.O=C(/C=C/c1ccc2c(c1)nc(CCc1ccccc1)n2CCN1CCCCC1)NO | – | – | IC50 (A2780): 31 nM; t1/2 [5]: 1.3 min; IC50 (PC-3): 120 nM; half-life (in vitro [1]): 10 min; IC50 (HCT-116 [2]): 100 nM |
| COc1cc(Cn2c(CCc3ccccc3)nc3cc(/C=C/C(=O)NO)ccc32)cc(OC)c1OC | 320 | 47 | – |
| O=C(O)CCn1c(CCc2ccccc2)nc2cc(/C=C/C(=O)NO)ccc21 | – | 2300 | – |
| CN(C)CC(C)(C)Cn1c(CCc2ccccc2)nc2cc(/C=C/C(=O)NO)ccc21 | 120 | 41 | inhibition in vivo at 100 mg/kg (HCT-116 [6]): 60%; Activity (Mus musculus [7]): Toxic |
| O=C(/C=C/c1ccc2nc(CCc3ccccc3)[nH]c2c1)NO | 4400 | 170 | – |
| O=C(/C=C/c1ccc2nc(CCc3ccccc3)n(Cc3ccccc3)c2c1)NO | 5400 | 1200 | – |
| Cn1c(CCc2ccccc2)nc2cc(/C=C/C(=O)NO)ccc21 | 1200 | – | inhibition in vivo at 50 mg/kg (HCT-116 [8]): 23%; MTD [4]: 50 mg/kg |
| O=C(/C=C/c1ccc2c(c1)nc(CCc1ccccc1)n2CCN1CCOCC1)NO | 2800 | – | – |
| O=C(/C=C/c1ccc2c(c1)nc(-c1ccsc1)n2CCCO)NO | 31000 | – | – |
| Cl.Cl.O=C(/C=C/c1ccc2c(c1)nc(CCc1ccccc1)n2CCN1CCCC1)NO | – | – | IC50 (A2780): 190 nM; IC50 (PC-3): 150 nM; half-life (in vitro [1]): > 30 min; IC50 (HCT-116 [2]): 200 nM; half-life (in vitro [3]): 2.7 min |
| O=C(/C=C/c1ccc2c(c1)nc(CCc1ccccc1)n2CCCN1CCCC1)NO | 610 | 310 | – |
| O=C(/C=C/c1ccc2c(c1)nc(CCc1ccccc1)n2Cc1ccccn1)NO | 880 | 250 | – |
| CN(C)CCCCn1c(CCc2ccccc2)nc2cc(/C=C/C(=O)NO)ccc21 | 1100 | 160 | – |
| Cl.Cn1c(CCc2ccccc2)nc2cc(/C=C/C(=O)NO)ccc21 | – | – | IC50 (A2780): 730 nM; IC50 (PC-3): 890 nM; half-life (in vitro [1]): > 30 min; IC50 (HCT-116 [2]): 1300 nM; half-life (in vitro [3]): 23 min |
| CCN(CC)CCn1c(CCc2ccccc2)nc2cc(/C=C/C(=O)NO)ccc21 | 220 | 52 | inhibition in vivo at 60 mg/kg (HCT-116 [9]): 12%; MTD [4]: 60 mg/kg |
| O=C(/C=C/c1ccc2c(c1)nc(CCc1ccccc1)n2CCN1CCCC1)NO | – | – | Activity (HCT-116 [10]): Active; Activity (Mus musculus [11]): Active |
| COc1cc(Cn2c(CCc3ccccc3)nc3cc(CCC(=O)NO)ccc32)cc(OC)c1OC | 2400 | – | – |
| CN(C)CC(C)(C)Cn1c(CCc2ccccc2)nc2cc(/C=C/C(=O)NO)ccc21.Cl.Cl | – | – | IC50 (A2780): 110 nM; t1/2 [5]: 1 min; IC50 (PC-3): 180 nM; half-life (in vitro [1]): 12 min; IC50 (HCT-116 [2]): 160 nM |
| O=C(/C=C/c1ccc2c(c1)nc(CCc1ccccc1)n2CCCN1CCCC1=O)NO | 11000 | – | – |
| Cn1c(CCc2ccccc2)nc2cc(C3CC3C(=O)NO)ccc21 (centres undefined) | – | 1300 | – |
| O=C(/C=C/c1ccc2c(c1)nc(CCc1ccccc1)n2CCN1CCCCC1)NO | 90 | 26 | inhibition in vivo at 75 mg/kg (HCT-116 [12]): 32%; MTD [4]: 75 mg/kg |

Second part, led by results:

| IC50 (COLO 205) [nM] | IC50 (Histone deacetylase 1) [nM] | Compound | further results |
| --- | --- | --- | --- |
| 5100 | > 100000 | Nc1ccccc1NC(=O)/C=C/c1ccc2c(c1)nc(CCc1ccccc1)n2Cc1ccccn1 | – |
| 1500 | – | CCn1c(CCc2ccccc2)nc2cc(/C=C/C(=O)NO)ccc21 | – |
| 31000 | – | O=C(/C=C/c1ccc2c(c1)nc(C1CCCCC1)n2CCCO)NO | – |
| > 100000 | – | O=C(/C=C/c1ccc2c(c1)nc(CCc1ccccc1)n2CCCn1ccnc1)NO | – |
| 26000 | 100 | CC(C)Cc1nc2cc(/C=C/C(=O)NO)ccc2n1CCCO | – |
| 1900 | – | O=C(/C=C/c1ccc2c(c1)nc(CCc1ccccc1)n2CCCN1CCOCC1)NO | – |
| 3700 | – | CCCCCCCCc1nc2cc(/C=C/C(=O)NO)ccc2n1CCCO | – |
| 4100 | – | O=C(/C=C/c1ccc2c(c1)nc(COCc1ccccc1)n2CCCO)NO | – |
| 1600 | 410 | O=C(/C=C/c1ccc2c(c1)nc(CCc1ccccc1)n2Cc1ccccc1)NO | – |
| 3200 | – | O=C(/C=C/c1ccc2c(c1)nc(CCc1ccccc1)n2CCCO)NO | – |
| 1700 | 80 | CC(Cc1nc2cc(/C=C/C(=O)NO)ccc2n1CCCO)c1ccccc1 (centres undefined) | – |
| 2000 | 190 | CN(C)CCCn1c(CCc2ccccc2)nc2cc(/C=C/C(=O)NO)ccc21 | – |
| 8800 | – | O=C(/C=C/c1ccc2c(c1)nc(CCc1ccccc1)n2CCc1ccccc1)NO | – |
| – | > 10000 | CC(C)Cc1nc2cc(CCC(=O)NO)ccc2n1CCCO | – |
| 2300 | 170 | CCCn1c(CCc2ccccc2)nc2cc(/C=C/C(=O)NO)ccc21 | – |
| 26000 | – | O=C(NO)c1ccc2c(c1)nc(CCc1ccccc1)n2CCCO | – |
